Laboratory results from patent US8552202B2, “Furo[3, 2-B] pyrrol-3-ones as cathespin S inhibitors” (Amura Therapeutics Limited, priority 2008, dated 2013).

Legend:
Type in all cases: biochemical
[1] = target: Human liver cathepsin L (Homo sapiens (Human), UniProt P07711); assay: In vitro cathepsin Ki inhibition measurements, cathepsin L; conditions: read-out: In vitro Ki (nM) vs Cath L
Description: (§1) Stock solutions of substrate or inhibitor were made up to 10 mM in 100% dimethylsulfoxide (DMSO) (Rathburns, Glasgow, U.K.) and diluted as appropriately required. In all cases the DMSO concentration in the assays was maintained at less than 1% (vol./vol.). The equilibrium inhibition constants (Ki^ss) for each compound were measured under steady-state conditions monitoring enzyme activity as a function of inhibitor concentration. The values were calculated on the assumption of pure competitive behaviour (Cornish-Bowden, A. Fundamentals of enzyme kinetics Portland Press; 1995, 93-128.).
Human liver cathepsin L (0.25 nM final, Athens Research and Technology, GA, USA) was routinely assayed in 10 mM bis-tris propane; pH 6.5 containing 1 mM EDTA, 5 mM 2-mercaptoethanol, 1 mM CaCl2 and 4 μM Ac-Phe-Arg-AMC ([S]=KM) (Bachem).
(§2) The apparent inhibition constant (Ki) for each compound was determined on the basis that inhibition was reversible and occurred by a pure-competitive mechanism. The Ki values were calculated, from the dependence of enzyme activity as a function of inhibitor concentration, by direct regression analysis (Prism v 3.02) using Equation 2 (Cornish-Bowden, A., 1995.).
(§3) In situations where the apparent dissociation constant (Ki^app) approached the enzyme concentrations, the Ki^app values were calculated using a quadratic solution in the form described by Equation 3 (Morrison, J. F. Trends Biochem. Sci., 7, 102-105, 1982; Morrison, J. F. Biochim. Biophys. Acta. 185, 269-286, 1969: Stone, S. R. and Hofsteenge, J. Biochemistry, 25, 4622-4628, 1986).
(§4) Curves were fitted by non-linear regression analysis (Prism) using a fixed value for the enzyme concentration. Equation 4 was used to account for the substrate kinetics, where ‘Ki’ is the inhibition constant, ‘[So]’ is the initial substrate concentration and ‘KM^app’ is the apparent macroscopic binding (Michaelis) constant for the substrate (Morrison, 1982).

[2] = target: Human liver cathepsin B (Homo sapiens (Human), UniProt P07858); assay: In vitro cathepsin Ki inhibition measurements, cathepsin B; conditions: read-out: In vitro Ki (nM) vs Cath B
Description: as §1
Human liver cathepsin B (0.25 nM final; Merck Biosciences), was routinely assayed in 10 mM bis-tris propane; pH 6.5 containing 1 mM EDTA, 5 mM 2-mercaptoethanol, 1 mM CaCl2 and 60 μM Z-Phe-Arg-AMC ([S]=KM) (Bachem, Weil am Rhein, Germany).
as §2, §3
as §4, with “In Equation 3 ‘vi’ is the observed residual activity, ‘F’ is the difference between the maximum activity (i.e. in the absence of inhibitor) and minimum enzyme activity, ‘Eo’ is the total enzyme concentration, ‘Ki^app’ is the apparent dissociation constant and ‘Io’ is the inhibitor concentration. Curves” for “Curves”

[3] = target: Human recombinant cathepsin V (Homo sapiens (Human), UniProt O60911); assay: In vitro cathepsin Ki inhibition measurements, cathepsin V; conditions: read-out: In vitro Ki (nM) vs Cath V
Sequence of Human recombinant cathepsin V (O60911 114-334): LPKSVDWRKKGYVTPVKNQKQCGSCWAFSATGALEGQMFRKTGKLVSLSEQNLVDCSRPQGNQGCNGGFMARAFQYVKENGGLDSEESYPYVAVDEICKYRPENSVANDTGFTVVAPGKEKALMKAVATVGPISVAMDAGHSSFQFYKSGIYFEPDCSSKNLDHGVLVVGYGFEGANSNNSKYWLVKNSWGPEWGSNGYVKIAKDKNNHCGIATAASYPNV
Description: as §1
Human recombinant cathepsin V (0.25 nM final, Merck Biosciences) was routinely assayed in 100 mM sodium acetate; pH 5.5 containing 10 mM L-cysteine, 0.001% (vol./vol.) zwittergent 3-12 (Merck Biosciences) and 5 μM Z-Leu-Arg-AMC (KM=0.5 μM) (Amura).
as §2, §3, §4

[4] = target: Human recombinant cathepsin S (Homo sapiens (Human), UniProt P25774); assay: In vitro cathepsin Ki inhibition measurements, cathepsin S; conditions: for selectivity against other mammalian cathepsins (in words): cathepsin S over other mammalian cathepsins; for Ki: read-out: In vitro Ki (nM) vs Cath S
Sequence of Human recombinant cathepsin S (P25774 115-331): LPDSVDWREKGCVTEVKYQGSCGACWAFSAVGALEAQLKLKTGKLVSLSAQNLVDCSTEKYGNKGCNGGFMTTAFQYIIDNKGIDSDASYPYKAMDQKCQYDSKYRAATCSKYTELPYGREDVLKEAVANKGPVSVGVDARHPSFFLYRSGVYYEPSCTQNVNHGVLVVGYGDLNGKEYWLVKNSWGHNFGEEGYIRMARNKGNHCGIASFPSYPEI
Description: as §1, §2, §3, §4

[5] = target: Human recombinant cathepsin K (Homo sapiens (Human), UniProt P43235); assay: In vitro cathepsin Ki inhibition measurements, cathepsin K; conditions: read-out: In vitro Ki (nM) vs Cath K
Sequence of Human recombinant cathepsin K (P43235 115-329): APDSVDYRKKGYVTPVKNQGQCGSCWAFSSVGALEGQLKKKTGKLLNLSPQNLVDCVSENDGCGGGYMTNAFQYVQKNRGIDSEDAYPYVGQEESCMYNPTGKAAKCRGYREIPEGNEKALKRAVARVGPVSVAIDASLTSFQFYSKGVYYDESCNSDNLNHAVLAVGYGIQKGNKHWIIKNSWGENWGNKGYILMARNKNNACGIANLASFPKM
Description: as §1
Human recombinant cathepsin K (0.25 nM final; B. Turk, Josef, Stefan Institute, Ljubljana, Slovenia), was routinely assayed in 100 mM sodium acetate; pH 5.5 containing 1 mM EDTA, 10 mM L-cysteine and 1.8 μM Z-Leu-Arg-AMC ([S]=KM).
as §2, §3, §4

Sequence of Human liver cathepsin L (P07711 114-333): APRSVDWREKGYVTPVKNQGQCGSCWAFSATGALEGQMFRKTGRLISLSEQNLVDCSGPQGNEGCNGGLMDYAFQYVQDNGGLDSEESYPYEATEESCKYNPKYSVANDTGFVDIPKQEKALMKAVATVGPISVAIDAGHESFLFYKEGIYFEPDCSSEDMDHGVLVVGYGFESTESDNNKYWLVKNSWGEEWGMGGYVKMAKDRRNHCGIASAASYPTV

In the case of O=C(N[C@H](C(=O)N1CC[C@H]2OCC(=O)[C@H]21)C1CCCCC1)c1ccccc1 [Compound 1], the Ki [1] is reported as 1250 nM, the Ki [2] is reported as over 10000 nM and the Ki [3] is reported as 1900 nM.

C[C@H]1CC[C@H]([C@H](NC(=O)c2ccccc2)C(=O)N2C[C@H](F)[C@H]3OCC(=O)[C@H]32)CC1 [Compound 5] was tested, and the “selectivity against other mammalian cathepsins (in words)” value [4] was “high selectivity”, the Ki [4] was 28 nM and the “less potent verses cathepsin S” value ([4]; relative to EXAMPLE 1) was 5.6 fold. The Ki [5] was over 10000 nM, the Ki [1] was over 10000 nM and the Ki [2] was over 10000 nM. For the same compound, the Ki [3] was over 10000 nM.

For CC1CCC([C@H](NC(=O)c2ccccc2)C(=O)N2CC[C@H]3OCC(=O)[C@H]32)CC1 (some centres unmarked) [Compound 4], the “selectivity verses cathepsin K” value ([4]; cathepsin S over cathepsin K) was over 65 fold, the Ki [4] was 72 nM and the “improvement in in vitro potency against human cathepsin S” value (shortened to “improvement in in vitro potency”) ([4]; relative to Compound 1) was 3 fold. For the same compound, the Ki [5] was over 4800 nM, the Ki [1] was over 10000 nM and the Ki [2] was over 10000 nM. For the same compound, the Ki [3] was over 10000 nM.

O=C(N[C@H](C(=O)N1CC[C@H]2OCC(=O)[C@H]21)C1CCCCC1)c1cccc(-n2cnnn2)c1 [Compound 7] was tested, and the Ki [1] was over 6500 nM, the Ki [2] was over 10000 nM and the Ki [3] was 5000 nM.

In the case of C[C@H]1CC[C@H]([C@H](NC(=O)c2ccccc2)C(=O)N2C[C@H](Cl)[C@H]3OCC(=O)[C@H]32)CC1 [EXAMPLE 1, N—((S)-2-((3aS,6S,6aS)-6-chloro-3-oxodihydro-2H-furo[3,2-b]pyrrol-4(5H,6H,6aH)-yl)-1-((1r,4S)-4-methylcyclohexyl)-2-oxoethyl)benzamide], the “selectivity against other mammalian cathepsins (in words)” value [4] is reported as “high selectivity”, the Ki [4] is reported as 5 nM and the “improvement in in vitro potency” value ([4]; relative to Compound 1) is reported as 45 fold. The “improvement in in vitro potency” value ([4]; relative to prior art compound (38)) was 111 fold, the Ki [5] was over 10000 nM and the Ki [1] was 1400 nM. It also gave a Ki [2] of over 10000 nM and a Ki [3] of over 10000 nM.

Work on C[C@H]1CC[C@H]([C@H](NC(=O)c2cccc(-n3ccnc3)c2)C(=O)N2C[C@H](Cl)[C@H]3OCC(=O)[C@H]32)CC1 yielded a Ki [4] of 0.4 nM, a Ki [5] of over 3000 nM and a Ki [1] of 4500 nM. The Ki [2] was 4000 nM and the Ki [3] was 3200 nM.

C[C@H]1CC[C@H]([C@H](NC(=O)c2cccc(-n3cnnn3)c2)C(=O)N2C[C@H](F)[C@H]3OCC(=O)[C@H]32)CC1 [Compound 11] was tested, and the “selectivity against other mammalian cathepsins (in words)” value [4] was “high selectivity”, the Ki [4] was 24 nM and the “less potent verses cathepsin S” value ([4]; relative to EXAMPLE 2) was 11 fold. It also gave a Ki [5] of over 10000 nM, a Ki [1] of over 10000 nM and a Ki [2] of over 10000 nM. For the same compound, the Ki [3] was over 10000 nM.

In the case of CC1(C)CCC([C@H](NC(=O)c2cccc(-n3cnnn3)c2)C(=O)N2C[C@H](Cl)[C@H]3OCC(=O)[C@H]32)CC1 [EXAMPLE 3, N—((S)-2-((3aS,6S,6aS)-6-chloro-3-oxodihydro-2H-furo[3,2-b]pyrrol-4(5H,6H,6aH)-yl)-1-(4,4-dimethylcyclohexyl)-2-oxoethyl)-3-(1H-tetrazol-1-yl)benzamide], the “selectivity against other mammalian cathepsins (in words)” value [4] is reported as “high selectivity”, the Ki [4] is reported as 12 nM and the “improvement in in vitro potency” value ([4]; relative to Compound 7) is reported as 15 fold. The Ki [5] was over 10000 nM, the Ki [1] was over 10000 nM and the Ki [2] was over 10000 nM. The Ki [3] was 1700 nM.

Compound O=C(N[C@H](C(=O)N1C[C@H](Cl)[C@H]2OCC(=O)[C@H]21)C1CCCCC1)c1cccc(-n2ccnc2)c1 [Compound 13] has a Ki [1] of 270 nM, a Ki [2] of 440 nM and a Ki [3] of 170 nM.

For O=C(N[C@H](C(=O)N1C[C@H](Cl)[C@H]2OCC(=O)[C@H]21)C1CCCCC1)c1ccccc1 [Compound 3], the “selectivity verses cathepsin K” value ([4]; cathepsin S over cathepsin K) was 4 fold, the “improvement in in vitro potency” value ([4]; relative to Compound 1) was 27 fold and the Ki [1] was 100 nM. It also gave a Ki [2] of 780 nM and a Ki [3] of 100 nM.

In the case of C[C@H]1CC[C@H]([C@H](NC(=O)c2cccc(-n3cnnn3)c2)C(=O)N2C[C@H](Cl)[C@H]3OCC(=O)[C@H]32)CC1 [EXAMPLE 2, N—((S)-2-((3aS,6S,6aS)-6-chloro-3-oxodihydro-2H-furo[3,2-b]pyrrol-4(5H,6H,6aH)-yl)-1-((1r,4S)-4-methylcyclohexyl)-2-oxoethyl)-3-(1H-tetrazol-1-yl)benzamide], the “selectivity against other mammalian cathepsins (in words)” value [4] is reported as “high selectivity”, the Ki [4] is reported as 2.2 nM and the “improvement in in vitro potency” value ([4]; relative to Compound 7) is reported as 77 fold. It also gave a Ki [5] of over 8000 nM, a Ki [1] of over 10000 nM and a Ki [2] of over 10000 nM. For the same compound, the Ki [3] was over 10000 nM.

For C[C@H]1CC[C@H]([C@H](NC(=O)c2cccc(-n3ccnc3)c2)C(=O)N2C[C@H](F)[C@H]3OCC(=O)[C@H]32)CC1 [Compound 15], the Ki [4] was 15 nM, the Ki [5] was over 10000 nM and the Ki [1] was over 10000 nM. For the same compound, the Ki [2] was over 10000 nM and the Ki [3] was over 10000 nM.

In the case of O=C(N[C@H](C(=O)N1C[C@H](F)[C@H]2OCC(=O)[C@H]21)C1CCCCC1)c1ccccc1 [Compound 2], the “selectivity verses cathepsin K (in words)” value ([4]; cathepsin S over cathepsin K) is reported as “little selectivity”, the “improvement in in vitro potency” value ([4]; relative to Compound 1) is reported as 3.8 fold and the Ki [1] is reported as 580 nM. It also gave a Ki [2] of over 7000 nM and a Ki [3] of 700 nM.

O=C(N[C@H](C(=O)N1C[C@H](Cl)[C@H]2OCC(=O)[C@H]21)C1CCCCC1)c1cccc(-n2cnnn2)c1 [Compound 9] was tested, and the “selectivity verses cathepsin K” value ([4]; cathepsin S over cathepsin K) was 7.5 fold, the “improvement in in vitro potency” value ([4]; relative to Compound 7) was 47 fold and the Ki [1] was over 1200 nM. The Ki [2] was 650 nM and the Ki [3] was 240 nM.

With C[C@H]1CC[C@H]([C@H](NC(=O)c2cccc(-n3cnnn3)c2)C(=O)N2CC[C@H]3OCC(=O)[C@H]32)CC1 [Compound 10] the “selectivity verses cathepsin K” value ([4]; cathepsin S over cathepsin K) was over 125 fold, the Ki [4] was 79 nM and the “improvement in in vitro potency” value ([4]; relative to Compound 7) was 2.2 fold. The Ki [5] was over 10000 nM, the Ki [1] was over 10000 nM and the Ki [2] was over 10000 nM. The Ki [3] was over 10000 nM.

With C[C@H]1CC[C@H]([C@H](NC(=O)c2cccc(-n3cnnn3)c2)C(=O)N2C[C@@H](Cl)[C@H]3OCC(=O)[C@H]32)CC1 [Compound 12] the “selectivity against other mammalian cathepsins (in words)” value [4] was “high selectivity”, the Ki [4] was 55 nM and the “less potent verses cathepsin S” value ([4]; relative to EXAMPLE 2) was 25 fold. For the same compound, the Ki [5] was over 10000 nM, the Ki [1] was over 10000 nM and the Ki [2] was over 10000 nM. The Ki [3] was over 10000 nM.

In the case of C[C@H]1CC[C@H]([C@H](NC(=O)c2ccccc2)C(=O)N2C[C@@H](Cl)[C@H]3OCC(=O)[C@H]32)CC1 [Compound 6], the “selectivity against other mammalian cathepsins (in words)” value [4] is reported as “high selectivity”, the Ki [4] is reported as 75 nM and the “less potent verses cathepsin S” value ([4]; relative to EXAMPLE 1) is reported as 15 fold. It also gave a Ki [5] of over 10000 nM, a Ki [1] of over 10000 nM and a Ki [2] of over 10000 nM. It also gave a Ki [3] of over 10000 nM.

O=C(N[C@@H](CC1CCCCC1)C(=O)N1CC[C@H]2OCC(=O)[C@H]21)c1ccccc1 [compound (38), reference compound] showed a Ki [5] of over 4000 nM, a Ki [1] of 1700 nM and a Ki [2] of over 10000 nM. For the same compound, the Ki [3] was 5700 nM.

O=C(N[C@H](C(=O)N1C[C@H](F)[C@H]2OCC(=O)[C@H]21)C1CCCCC1)c1cccc(-n2cnnn2)c1 [Compound 8] was tested, and the “selectivity verses cathepsin K” value ([4]; cathepsin S over cathepsin K) was 6.8 fold, the “improvement in in vitro potency” value ([4]; relative to Compound 7) was 3.4 fold and the Ki [1] was 4000 nM. It also gave a Ki [2] of 6000 nM and a Ki [3] of 2000 nM.

For O=C(N[C@H](C(=O)N1C[C@@H](Cl)[C@H]2OCC(=O)[C@H]21)C1CCCCC1)c1cccc(-n2ccnc2)c1 [Compound 14], the Ki [1] was 1900 nM, the Ki [2] was 5000 nM and the Ki [3] was 1800 nM.
